Among the test systems are A549; CCRF-CEM; COLO 205; DU-145; HT-29; Hs-578T; K562; LOX IMVI; MCF7; MDA-MB-435; NCI-H460; OVCAR-5; SF-268; SK-MEL-5; T47D; UACC-257; UACC-62; SK-MEL-2.
Assay in all cases: NCI anticancer screen, dose series, 48 h

The text below walks through data of ChEMBL document CHEMBL1201862, “PubChem BioAssay data set” (2004).

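Tested at 5 concentrations; 48 h exposure; 96-well plates; endpoints linearly interpolated, else capped at highest concentration. GI50 is the concentration that inhibits growth by half.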 Active and inactive are the calls of the source. Cut-off read from the data, not from the text of the source: active = GI50 up to about 1.1 µM and inactive = higher.

On to `CN(COC(=O)c1ccccc1)c1nc(N(C)COC(=O)c2ccccc2)nc(N(C)COC(=O)c2ccccc2)n1`, for which the GI50 in the experiment with A549 is > 100 µM (inactive); in the experiment on CCRF-CEM it was > 100 µM (inactive); with COLO 205 it was > 100 µM (inactive); in the experiment with DU-145, > 100 µM (inactive); in the experiment on HT-29, > 100 µM (inactive); with Hs-578T, 22.4 µM (inactive). For the same molecule, the GI50 in the experiment on K562 was > 27.4 µM (inactive); in the experiment with LOX IMVI it was > 100 µM (inactive); with MCF7, > 71.9 µM (inactive); in the experiment with MDA-MB-435 it was > 100 µM (inactive); in the experiment with NCI-H460, > 69.5 µM (inactive); in the experiment with OVCAR-5, > 100 µM (inactive). The GI50 in the experiment with SF-268 was 21.8 µM (inactive); in the experiment on SK-MEL-5, > 100 µM (inactive); in the experiment on T47D it was 28.8 µM (inactive); with UACC-257, > 91.4 µM (inactive); in the experiment on UACC-62, > 60.7 µM (inactive).
In the case of `CC(C)(C)c1cc(-c2ccc(-c3cc(C(C)(C)C)c(O)c(C(C)(C)C)c3)cc2)cc(C(C)(C)C)c1O`, the GI50 with A549 was > 100 µM (inactive); in the experiment with COLO 205 it was > 100 µM (inactive); in the experiment on DU-145 it was > 100 µM (inactive); with HT-29, > 100 µM (inactive); with Hs-578T it was > 10 µM (inactive); in the experiment on K562 it was > 100 µM (inactive). In addition, the GI50 in the experiment with LOX IMVI, in the experiment on MCF7, in the experiment on MDA-MB-435, with OVCAR-5, in the experiment on SF-268 and in the experiment on SK-MEL-2 was > 100 µM (inactive) each time. The GI50 in the experiment with SK-MEL-5, with T47D, in the experiment with UACC-257 and with UACC-62 was > 100 µM (inactive) each time.
As to `O=C1OCCC[C@H]2O[C@@H](COCc3ccccc3)C[C@@H]12`, the GI50 with A549, in the experiment with CCRF-CEM, in the experiment on COLO 205, in the experiment with DU-145, in the experiment on HT-29 and in the experiment with Hs-578T was > 100 µM (inactive) throughout. For the same molecule, the GI50 in the experiment with K562, in the experiment on MCF7, in the experiment with MDA-MB-435, with NCI-H460, in the experiment with OVCAR-5 and with SF-268 was > 100 µM (inactive) each time. The GI50 with SK-MEL-2, with SK-MEL-5, in the experiment with T47D, with UACC-257 and in the experiment on UACC-62 was > 100 µM (inactive) in each case.
In the case of `CNC(=S)NNc1ncnc2c1c(-c1ccc(Cl)cc1)cn2-c1ccc(C)cc1`, the GI50 in the experiment on A549 is 4.67 µM (inactive); with CCRF-CEM, 0.897 µM (active); in the experiment on COLO 205, 14.3 µM (inactive); in the experiment with DU-145, 14.8 µM (inactive); in the experiment with HT-29, 14.9 µM (inactive); in the experiment on Hs-578T, 20.9 µM (inactive). Besides, the GI50 in the experiment on K562 was 3.2 µM (inactive); in the experiment on LOX IMVI, 9.38 µM (inactive); with MDA-MB-435, 8.34 µM (inactive); in the experiment on NCI-H460, 1.95 µM (inactive); with OVCAR-5, 14.7 µM (inactive); in the experiment with SF-268, 10.2 µM (inactive). For the same molecule, the GI50 in the experiment on SK-MEL-2 was 13.6 µM (inactive); with SK-MEL-5, 5.89 µM (inactive); in the experiment on T47D, 8.49 µM (inactive); in the experiment on UACC-257 it was 12.9 µM (inactive); in the experiment on UACC-62 it was 14.5 µM (inactive).
Consider `COc1ccc2c(c1)nc1n2C(c2c(F)cccc2Cl)SC1` (stereo unspecified), for which the GI50 is 4.81 µM (inactive) with A549; 3.1 µM (inactive) in the experiment on CCRF-CEM; 3.98 µM (inactive) in the experiment with COLO 205; 1.49 µM (inactive) in the experiment with DU-145; 4.52 µM (inactive) in the experiment with HT-29; 1.69 µM (inactive) with Hs-578T. For the same molecule, the GI50 with K562 was > 100 µM (inactive); in the experiment on LOX IMVI, 6.64 µM (inactive); in the experiment on MCF7 it was 3.66 µM (inactive); with MDA-MB-435, 0.703 µM (active); in the experiment with NCI-H460 it was 3.68 µM (inactive); with OVCAR-5 it was > 37.2 µM (inactive). For the same molecule, the GI50 in the experiment on SF-268 was 3.66 µM (inactive); in the experiment on SK-MEL-5, 3.17 µM (inactive); with T47D, 3.32 µM (inactive); in the experiment with UACC-257, 18.2 µM (inactive); in the experiment with UACC-62, 7.26 µM (inactive).
Consider `C=C(Br)C[N+]12CN3CN(CN(C3)C1)C2`, for which the GI50 with A549, in the experiment on CCRF-CEM, in the experiment with COLO 205, in the experiment on DU-145, in the experiment on HT-29 and in the experiment with Hs-578T was > 100 µM (inactive) each time. In addition, the GI50 with K562, in the experiment on LOX IMVI, with MDA-MB-435, in the experiment on NCI-H460, with OVCAR-5 and with SF-268 was > 100 µM (inactive) in each case. Moreover, the GI50 in the experiment with SK-MEL-2, in the experiment on SK-MEL-5, in the experiment on T47D, in the experiment with UACC-257 and in the experiment on UACC-62 was > 100 µM (inactive) each time.
Take `CCCCCCCC(CC(=O)NC(CO)C(=O)NC(CO)CC(C)C)OC(=O)CC(CCCCCCC)OC(=O)CC(CCCCCCC)OC1OC(C)C(O)C(OC2OC(C)C(O)C(O)C2OC(C)=O)C1O` (stereo unspecified): the GI50 with A549 was 12.3 µM (inactive); with CCRF-CEM, 3.15 µM (inactive); in the experiment on COLO 205, 2.04 µM (inactive); with DU-145, 10.6 µM (inactive); in the experiment with HT-29, 3.6 µM (inactive); in the experiment on Hs-578T, 4.51 µM (inactive). Also, the GI50 in the experiment on K562 was 4.13 µM (inactive); in the experiment on MCF7 it was 10.5 µM (inactive); in the experiment on MDA-MB-435 it was 2.75 µM (inactive); in the experiment with NCI-H460, 4.07 µM (inactive); in the experiment with OVCAR-5 it was 10.3 µM (inactive); in the experiment with SF-268, 5.89 µM (inactive). Further, the GI50 is 10.1 µM (inactive) in the experiment with SK-MEL-5, 6.52 µM (inactive) with T47D, 2.99 µM (inactive) in the experiment on UACC-257 and 5.9 µM (inactive) with UACC-62.
With `CN1C(=O)C(/C=N/NC(=O)c2cccnc2)C(N)N(C)C1=O` (stereo unspecified), the GI50 in the experiment with A549, with CCRF-CEM, in the experiment on COLO 205, in the experiment with DU-145, with HT-29 and with Hs-578T was > 100 µM (inactive) throughout. Moreover, the GI50 in the experiment with K562, in the experiment with MCF7, in the experiment on MDA-MB-435, with NCI-H460, in the experiment with OVCAR-5 and with SF-268 was > 100 µM (inactive) each time. For the same molecule, the GI50 in the experiment on SK-MEL-2 was 35.3 µM (inactive); in the experiment with SK-MEL-5 it was > 100 µM (inactive); with T47D, > 100 µM (inactive); in the experiment with UACC-257 it was > 100 µM (inactive); in the experiment on UACC-62 it was > 100 µM (inactive).
`CCOC(=O)c1sc2c(c1OC(=O)c1cc(OC)c(OC)c(OC)c1)c(=O)n(-c1ccccc1)c(=S)n2-c1ccccc1`: the GI50 was > 100 µM (inactive) with A549; 17.5 µM (inactive) in the experiment on CCRF-CEM; > 100 µM (inactive) with COLO 205; > 100 µM (inactive) in the experiment with DU-145; 98.9 µM (inactive) with HT-29; 51.2 µM (inactive) in the experiment on Hs-578T. For the same molecule, the GI50 in the experiment with K562 is 65 µM (inactive); in the experiment on LOX IMVI, > 100 µM (inactive); in the experiment on MCF7 it was > 100 µM (inactive); with MDA-MB-435, 79.1 µM (inactive); in the experiment with NCI-H460 it was 51.5 µM (inactive); in the experiment with OVCAR-5, > 100 µM (inactive). Moreover, the GI50 with SF-268 is > 100 µM (inactive); in the experiment on SK-MEL-5, > 100 µM (inactive); in the experiment with T47D it was 41.6 µM (inactive); in the experiment on UACC-257 it was > 100 µM (inactive); with UACC-62, 51.8 µM (inactive).
Take `COC(=O)C1CCC(=O)N1CN(C(C)=O)c1cc(OC)ccc1OC` (stereo unspecified): the GI50 with A549, with COLO 205, with DU-145, in the experiment on HT-29, in the experiment on Hs-578T and in the experiment with K562 was > 100 µM (inactive) in each case. Further, the GI50 with LOX IMVI, in the experiment with MCF7, in the experiment with MDA-MB-435, with NCI-H460, in the experiment with OVCAR-5 and in the experiment on SF-268 was > 100 µM (inactive) throughout. Besides, the GI50 in the experiment on SK-MEL-2, in the experiment on SK-MEL-5, in the experiment with T47D, in the experiment with UACC-257 and with UACC-62 was > 100 µM (inactive) in each case.
Take `CN(C)Cc1cc(/N=N/c2ccc(Cl)c(Cl)c2)ccc1O`: the GI50 in the experiment on A549 is 13.9 µM (inactive); in the experiment with CCRF-CEM, 4.43 µM (inactive); with COLO 205, 2.84 µM (inactive); in the experiment on DU-145, 4 µM (inactive); in the experiment with HT-29, 6.53 µM (inactive); in the experiment with Hs-578T, 6.03 µM (inactive). Besides, the GI50 with K562 is 2.61 µM (inactive); in the experiment on LOX IMVI it was 3.4 µM (inactive); in the experiment on MCF7, 4.46 µM (inactive); in the experiment with MDA-MB-435 it was 11.7 µM (inactive); in the experiment on NCI-H460 it was 6.35 µM (inactive); in the experiment with SF-268, 3.61 µM (inactive). In addition, the GI50 in the experiment on SK-MEL-5 was 12.4 µM (inactive); in the experiment with T47D, 7 µM (inactive); in the experiment on UACC-257, 16.8 µM (inactive); with UACC-62 it was 5.96 µM (inactive).
As to `CCOC(=O)C1=C(C)NC(=O)NC1c1ccc(N(CCCl)CCCl)cc1Cl` (stereo unspecified), the GI50 is 13.7 µM (inactive) in the experiment on A549; 18.6 µM (inactive) in the experiment with COLO 205; 18.2 µM (inactive) with DU-145; 16 µM (inactive) in the experiment with HT-29; 17.1 µM (inactive) in the experiment on Hs-578T; 12 µM (inactive) in the experiment with K562. For the same molecule, the GI50 is 15.9 µM (inactive) in the experiment with LOX IMVI; 13.6 µM (inactive) in the experiment on MCF7; 19 µM (inactive) in the experiment on MDA-MB-435; 13 µM (inactive) with NCI-H460; 17.9 µM (inactive) in the experiment on OVCAR-5; 15.5 µM (inactive) in the experiment on SF-268. In addition, the GI50 was 16.3 µM (inactive) in the experiment on SK-MEL-2; 14.7 µM (inactive) with SK-MEL-5; 5.77 µM (inactive) in the experiment with T47D; 16 µM (inactive) with UACC-257; 10.6 µM (inactive) in the experiment with UACC-62.
